From PMC6470523, “Introduction of Nonacidic Side Chains on 6-Ethylcholane Scaffolds in the Identification of Potent Bile Acid Receptor Agonists with Improved Pharmacokinetic Properties” (Molecules, 2019)
In brackets after ≈: the same amount, converted by molar mass.

What was measured:
[1] = Liver microsomal stability; format: in vitro ADME, mouse; conditions: liver microsomes; for microsomal CLint at 1 µM / half-life at 1 µM: male, CD-1, mouse, pH 7.4, 1 μM compound, 37 °C; for half-life at 1 µM: read-out: t½
Description: (§1) Chromatography was performed using an Alliance pump system coupled to a Q-ToF Premiere (Waters Co., Milford, MA, USA). The mixture was separated on a Luna 5 µm C8(2) 100° A 150 × 2 mm from Phenomenex. The mobile phase consisted of 0.2% formic acid (FA) in water as solvent A and 0.2% FA in acetonitrile as solvent B at a flow rate of 200 μL/min. The gradient was as follows: 0–2 min (70% A and 30% B), 2–20 min (5% A and 95% B), 20–30 min (70% A and 30% B). The detection of analytes was achieved by electrospray ionization (ESI) in the positive mode with the appropriate MS/MS transitions, if necessary.
Male mouse (CD-1) liver microsomes (Sigma-Aldrich, St. Louis, MO, USA) were used. All incubations were performed in duplicate in a shaking water bath at 37 °C. The incubation mixtures contained 1 μM compound with 1% DMSO used as a vehicle, mouse liver microsomes (0.3 mg of microsomal protein per mL), 5 mM MgCl2, 1 mM NADP, 5 mM glucose 6-phosphate, 0.4 U·mL^−1 glucose 6-phosphate dehydrogenase, and 50 mM potassium phosphate buffer (pH 7.4) in a final volume of 0.5 mL. Aliquots were removed at 0, 5, 10, 20, 30, and 40 min after microsome addition and the reaction was stopped by adding 200 μL of ice-cold acetonitrile. After two hours, the samples were centrifuged for 10 min at 10,000 rpm, and the supernatants were transferred in matrix tubes for LC-MS/MS analysis. LC-MS/MS analysis were carried out setting the m/z window around the value of the MH^+ of the unmodified compounds.
Propranolol, known as a high hepatic clearance drug in rodents, was used as a quality-control compound for the microsomal incubations. The slope of the linear regression of the curve obtained reporting the natural logarithm of compound area versus incubation time (−k) was used in the conversion to in vitro t1/2 values by t1/2 = −ln(2)/k. In vitro intrinsic clearance (Clint expressed as μL/min/mg) was calculated according to the following formula: Clint = volume of reaction (µL)/t1/2(min)/protein of liver microsomes (mg). The percentage of unmodified compound has been calculated assuming the area of the compound peak at time 0 min as 100%.

[2] = Aqueous solubility measurement (PBS pH 7.4, LC-MS); format: physicochemical; conditions: aqueous buffer, kinetic from dmso stock; aqueous solubility at pH 7.4 (PBS), 24 h room temperature
Description: as §1
Ten microliters of a 10 mM solution in DMSO of each compound was diluted either in 490 μL of PBS pH 7.4 or in organic solvent MeOH (in triplicate). The tubes were gently shaken 24 h at room temperature, then centrifuged for 5 min at 4000 rpm. 10 microliters of sample were diluted in 490 μL of MeOH. The solubility is determined by the ratio of mass signal area PBS/organic solvent.

human FXR = molecular target: T1, human FXR (Homo sapiens, UniProt Q96RI1); assay: FXR transactivation luciferase reporter assay in HepG2 cells; format: cell-based; conditions: for EC50: dose response 0.5 to 50 µM, 18 h; for EC50 / FXR Eff (%) vs 6-ECDCA / FXR Eff (%) vs CDCA: HepG2 cells; for FXR Eff (%) vs 6-ECDCA: maximum efficacy of compound (10 µM) relative to 6-ECDCA (1 µM) set as 100%; for FXR Eff (%) vs 6-ECDCA / FXR Eff (%) vs CDCA: FRE transactivation; for FXR Eff (%) vs CDCA: maximum efficacy of compound (10 µM) relative to CDCA (10 μM) set as 100%; for FXR activity (in words): transactivation assay
T1 construct: expressed in transfected cells; host or cells: HepG2
T1 sequence (Q96RI1 1-486): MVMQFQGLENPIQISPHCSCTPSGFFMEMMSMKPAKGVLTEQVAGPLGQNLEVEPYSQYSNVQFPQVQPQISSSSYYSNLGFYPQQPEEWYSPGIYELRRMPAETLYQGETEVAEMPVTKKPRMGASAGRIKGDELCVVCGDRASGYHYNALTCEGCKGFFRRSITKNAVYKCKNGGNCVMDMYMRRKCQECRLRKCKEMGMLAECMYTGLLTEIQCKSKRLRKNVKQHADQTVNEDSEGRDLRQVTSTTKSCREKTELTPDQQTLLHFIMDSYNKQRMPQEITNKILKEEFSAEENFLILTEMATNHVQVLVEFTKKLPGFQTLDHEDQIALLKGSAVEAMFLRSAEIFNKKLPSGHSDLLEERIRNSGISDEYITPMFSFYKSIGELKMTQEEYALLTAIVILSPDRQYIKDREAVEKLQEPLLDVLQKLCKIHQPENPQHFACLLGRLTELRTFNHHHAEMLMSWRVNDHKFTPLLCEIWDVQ
T1 sequence (P19793 1-462 partner): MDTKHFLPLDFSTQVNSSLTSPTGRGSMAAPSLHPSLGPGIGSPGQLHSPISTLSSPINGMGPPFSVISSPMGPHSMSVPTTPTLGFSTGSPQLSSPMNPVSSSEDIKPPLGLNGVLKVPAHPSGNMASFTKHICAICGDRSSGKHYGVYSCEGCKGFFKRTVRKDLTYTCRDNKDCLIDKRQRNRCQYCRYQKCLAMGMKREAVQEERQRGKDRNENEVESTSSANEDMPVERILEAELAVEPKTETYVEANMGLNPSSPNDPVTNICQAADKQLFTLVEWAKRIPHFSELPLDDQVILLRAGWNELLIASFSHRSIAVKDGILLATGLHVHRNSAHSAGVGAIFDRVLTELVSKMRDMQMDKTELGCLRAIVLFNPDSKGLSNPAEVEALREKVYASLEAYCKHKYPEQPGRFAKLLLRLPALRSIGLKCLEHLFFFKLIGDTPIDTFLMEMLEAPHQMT
Description: (§2) To evaluate FXR mediated transactivation, HepG2 cells were transfected with 100 ng of human pSG5-FXR, 100 ng of human pSG5-RXR, 200 ng of the reporter vector p(hsp27)-TK-LUC containing the FXR response element IR1 cloned from the promoter of heat shock protein 27 (hsp27) and with 100 ng of pGL4.70 (Promega), a vector encoding the human Renilla gene. To evaluate GPBAR1 mediated transactivation, HEK293T cells were transfected with 200 ng of human pGL4.29 (Promega), a reporter vector containing a cAMP response element (CRE) that drives the transcription of the luciferase reporter gene luc2P, with 100 ng of pCMVSPORT6-human GPBAR1, and with 100 ng of pGL4.70. […] After treatments, 10 μL of cellular lysates were read using a Dual-Luciferase Reporter Assay System (Promega Italia srl, Milan, Italy) according manufacturer specifications using the Glomax20/20 luminometer (Promega Italia srl, Milan, Italy). Luciferase activities were assayed and normalized with Renilla activities.
(§3) At 18 h post stimulations, cellular lysates were assayed for luciferase and Renilla activities using the Dual-Luciferase Reporter Assay System (E1980, Promega Italia srl, Milan, Italy). Luminescence was measured using Glomax 20/20 luminometer (Promega Iralia srl, Milan, Italy). Luciferase activities were normalized with Renilla activities.

human GPBAR1 = molecular target: T2, human GPBAR1 (Homo sapiens, UniProt Q8TDU6); assay: GPBAR1 transactivation (CRE luciferase reporter) assay in HEK293T cells; format: cell-based; conditions: for EC50: dose response 0.5 to 50 µM, 18 h; for GPBAR1 Eff (%) vs 6-ECDCA: maximum efficacy of compound (10 µM) relative to 6-ECDCA (1 µM) set as 100, CRE transactivation; for GPBAR1 Eff (%) vs TLCA: maximum efficacy of compound (10 µM) relative to TLCA (10 μM) set as 100, CRE transactivation
T2 construct: expressed in transfected cells; host or cells: HEK293T
T2 sequence (Q8TDU6 1-330): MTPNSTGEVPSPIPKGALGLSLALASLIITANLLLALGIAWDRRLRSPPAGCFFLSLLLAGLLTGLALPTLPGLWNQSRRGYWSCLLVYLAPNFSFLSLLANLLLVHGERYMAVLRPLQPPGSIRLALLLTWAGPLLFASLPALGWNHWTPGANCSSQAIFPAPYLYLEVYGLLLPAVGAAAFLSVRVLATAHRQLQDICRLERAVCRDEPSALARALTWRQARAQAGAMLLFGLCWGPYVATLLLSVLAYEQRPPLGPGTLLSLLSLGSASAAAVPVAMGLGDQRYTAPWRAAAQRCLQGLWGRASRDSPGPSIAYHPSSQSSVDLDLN
Description: as §2, §3

SHP mRNA in HepG2 cells = assay: RT-PCR of FXR target gene SHP mRNA in HepG2 cells; format: cell-based, human; conditions: 1 and 10 µM, 18 h, vs CDCA 10 µM, Figure 2B
Description: (§4) HepG2 and GLUTag cells were plated at 1 × 10^6 cells/well in a six well plate. […] Total RNA was isolated from cells using the TRIzol reagent according to the manufacturer's specifications (Invitrogen, Carlsbad, CA, USA). One microgram of purified RNA was treated with DNase-I and reverse transcribed with Superscript II (Invitrogen, Carlsbad, CA, USA). For Real Time PCR, 10 ng template was dissolved in 25 μL containing 200 nmol/L of each primer and 12.5 μL of 2× SYBR FAST Universal ready mix (Invitrogen, Carlsbad, CA, USA). All reactions were performed in triplicate, and the thermal cycling conditions were as follows: 2 min at 95 °C, followed by 40 cycles of 95 °C for 20 s and 60 °C for 30 s in StepOnePlus (Applied Biosystems, Foster City, CA, USA). The relative mRNA expression was calculated accordingly to the Ct method. Primers were designed using the software PRIMER31 using published data obtained from the NCBI database. Forward and reverse primer sequences were the following: human GAPDH, [NT]; human SHP, [NT]; mouse GAPDH, [NT]; mouse pro-glucagon, [NT]

[3] = tested on: pro-glucagon mRNA in GLUTag cells; assay: RT-PCR of GPBAR1 target gene pro-glucagon mRNA in GLUTag cells; format: cell-based, murine; conditions: 1 and 10 µM, 18 h, Figure 2A
Description: as §4

Row | SMILES | Percentage of compound remaining in solution after 40 min incubation [1] [%] | microsomal CLint at 1 µM [1] [µL/min/mg] | half-life at 1 µM [1] [h] | solubility at 24 h [2] [µM] | EC50 (human FXR) [nM] | FXR Eff (%) vs 6-ECDCA (human FXR) [%] | FXR Eff (%) vs CDCA (human FXR) [%] | EC50 (human GPBAR1) [nM] | GPBAR1 Eff (%) vs 6-ECDCA (human GPBAR1) [%] | GPBAR1 Eff (%) vs TLCA (human GPBAR1) [%] | FXR activity (in words) (human FXR) | SHP mRNA expression (in words) (SHP mRNA in HepG2 cells) | pro-glucagon mRNA expression (in words) [3]
1 | CC[C@H]1[C@@H](O)[C@@H]2[C@H](CC[C@]3(C)[C@@H]([C@H](C)CCC(=O)O)CC[C@@H]23)[C@@]2(C)CC[C@@H](O)C[C@@H]12 [6-ECDCA, 6-ethylchenodeoxycholic acid, reference compound] | 26.9 | 109 | 0.352 | 195 (≈ 82 µg/mL) | – | – | – | – | – | – | – | – | –
2 | C=CC(C)C1CCC2C3C(O)C(CC)C4CC(O)CCC4(C)C3CCC12C (stereo not drawn) [compound 1, 6α-Ethyl-3α, 7α-dihydroxy-24-nor-5β-chol-23-ene] | 42.2 | 52.6 | 0.73 | 201 (≈ 75.3 µg/mL) | 1800 ± 500 | 45.6 | 252 | 140 ± 32 | 367.1 | 79 | – | – | –
3 | CCC(C)C1CCC2C3C(O)C(CC)C4CC(O)CCC4(C)C3CCC12C (stereo not drawn) [compound 2, 6α-Ethyl-3α, 7α -dihydroxy-24-nor-5β-cholane] | 72.8 | 25 | 1.54 | 176 (≈ 66.3 µg/mL) | 1300 ± 120 | 46.5 | 249 | 1500 ± 290 | 255.2 | 53 | – | – | –
4 | CCC1C(O)C2C3CCC(C(C)CO)C3(C)CCC2C2(C)CCC(O)CC12 (stereo not drawn) [compound 3, 6α-Ethyl-3α, 7α -dihydroxy-23,24-dinor-5β-cholan-22-ol] | 60.6 | 36.6 | 1.05 | 210 (≈ 79.5 µg/mL) | 2800 ± 450 | 45 | 257 | 430 ± 15 | 243.4 | 55 | – | – | –
5 | C=CC(C)C1CCC2C3C(O)C(CC)C4CCCCC4(C)C3CCC12C (stereo not drawn) [compound 4, 6α-Ethyl-7α-hydroxy-24-nor-5β-chol-23-ene] | – | – | – | – | – | 3.1 | 17 | – | 68.8 | 15 | inactive | – | –
6 | CCC(C)C1CCC2C3C(O)C(CC)C4CCCCC4(C)C3CCC12C (stereo not drawn) [compound 5, 6α-Ethyl-7α-hydroxy-23,24-dinor-5β-cholane] | – | – | – | – | – | 2.5 | 14 | – | 53.4 | 12 | inactive | – | –
7 | CCC1C(O)C2C3CCC(C(C)CO)C3(C)CCC2C2(C)CCCCC12 (stereo not drawn) [compound 6, 6α-Ethyl-7α-hydroxy-23,24-dinor-5β-cholan-22-ol] | 79.2 | 19.7 | 1.96 | 162 (≈ 58.7 µg/mL) | 13700 ± 2050 | 33.4 | 185 | – | 87.5 | 19 | – | more potent than CDCA | failed to regulate
